From patent US9321737B2, “CDK8-CDK19 selective inhibitors and their use in anti-metastatic and chemopreventative methods for cancer” (SENEX BIOTECHNOLOGY INC, priority 2012, dated 2016)

What was measured:
[1] = Pharmacokinetics in mouse plasma (gavage); type: in vivo; conditions: mice, gavage 100 mg/kg
[2] = Pharmacokinetics in rat plasma; type: in vivo; conditions: i.p. 40 mg/kg
MAP4K2 = biological target: T1, MAP4K2 (Homo sapiens, UniProt Q12851); assay: KinomeScan ATP pocket binding inhibition, MAP4K2; conditions: 2,000 nM
T1 construct: purchased KinomeScan, a division of Ambit Biosciences
T1 sequence (Q12851 1-820): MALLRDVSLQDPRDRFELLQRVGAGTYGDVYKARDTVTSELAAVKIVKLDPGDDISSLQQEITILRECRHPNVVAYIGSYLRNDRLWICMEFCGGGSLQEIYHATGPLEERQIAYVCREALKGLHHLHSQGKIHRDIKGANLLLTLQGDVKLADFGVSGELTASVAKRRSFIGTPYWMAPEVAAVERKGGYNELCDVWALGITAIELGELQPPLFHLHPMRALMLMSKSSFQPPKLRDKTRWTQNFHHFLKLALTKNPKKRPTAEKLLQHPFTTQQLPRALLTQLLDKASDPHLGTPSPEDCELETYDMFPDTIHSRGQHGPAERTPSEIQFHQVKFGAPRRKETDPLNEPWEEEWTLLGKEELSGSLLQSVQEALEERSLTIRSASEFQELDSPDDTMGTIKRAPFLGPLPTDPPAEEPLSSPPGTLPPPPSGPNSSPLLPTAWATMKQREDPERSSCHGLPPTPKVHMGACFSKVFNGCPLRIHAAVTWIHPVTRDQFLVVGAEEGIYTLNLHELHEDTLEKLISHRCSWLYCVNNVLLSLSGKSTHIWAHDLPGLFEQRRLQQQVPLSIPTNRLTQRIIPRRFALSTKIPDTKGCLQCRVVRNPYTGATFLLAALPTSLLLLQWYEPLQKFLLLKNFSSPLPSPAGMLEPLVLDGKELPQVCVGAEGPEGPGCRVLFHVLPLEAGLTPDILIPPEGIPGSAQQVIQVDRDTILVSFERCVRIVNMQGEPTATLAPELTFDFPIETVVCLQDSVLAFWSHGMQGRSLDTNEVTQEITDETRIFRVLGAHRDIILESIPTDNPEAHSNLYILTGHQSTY
From the text: (§1) (16) The results of this analysis are presented in FIGS. 6A-B in the form of an evolutionary dendrogram of the kinase family, where kinase inhibition is represented by red circles, the size of which represents the magnitude of the inhibition.

MDA-MB-468 [3] = assay: Breast carcinoma cell growth, MTT, MDA-MB-468; type: cell-based; conditions: five days
Water solubility = type: physicochemical; conditions: 40° C., 30 min, no pellet after centrifugation
Protocol: (§2) The compounds were also tested for solubility in 20% propylene glycol and in water, as follows. Compounds (dry powder) were dissolved in 20% propylene glycol at a concentration of 1 mM at a temperature of 40° C. with occasional vortexing. After 30 min, the solution was centrifuged at 10,000×g for 5 min. Serial dilutions of the cleared supernatant were prepared and used to measure the compound concentrations through OD reading, relative to 1 μM standard solution of the same compound. The results of the measurement were expressed as % solubility of the compound at 1 mM in 20% propylene glycol. To determine water solubility, the compounds (dry powder) were initially dissolved in water at a concentration of 100 mM at a temperature of 40° C. with occasional vortexing. After 30 min, the solution was centrifuged at 10,000×g for 5 min, and the formation of an insoluble pellet was monitored. At subsequent steps, the compound was attempted to be dissolved at lower concentrations, until no pellet was observed after centrifugation, indicating complete solution of the compound.

CDK19 = CDK19 (Homo sapiens, UniProt Q9BWU1); assay: KinomeScan ATP pocket binding inhibition, CDK19; conditions: 2,000 nM
From the text: as §1

MDA-MB-157 = assay: Breast carcinoma cell growth, MTT, MDA-MB-157; type: cell-based; conditions: five days
MDA-MB-468 [4] = assay: MDA-MB-468 TNBC xenograft model; type: in vivo, female nude mice; conditions: 40 mg/kg Senexin B daily i.p.; 4 mg/kg doxorubicin two injections two weeks apart
Protocol: Female nude mice were inoculated with MDA-MB-468 cells, and once palpable tumors were formed, mice were randomized into 4 groups, treated daily i.p. with vehicle alone (n=12), 40 mg/kg Senexin B, two injections with 4 mg/kg doxorubicin two weeks apart, or doxorubicin combined with Senexin B (n=8 in each of the latter groups).

4T1 = assay: Breast carcinoma cell growth, MTT, 4T1; type: cell-based; conditions: five days
>450 kinases = assay: KinomeScan ATP pocket binding inhibition, rest of panel; conditions: 2,000 nM
From the text: as §1

[5] = test system: A549 human lung xenograft tumors; assay: Pretreatment before A549 xenograft injection; type: in vivo, CB-17 SCID mice; conditions: 5 daily i.p. 40 mg/kg before s.c. A549 injection; p<0.007 on days 21 and 24
Protocol: Mice were then injected s.c. with 1×10^6 cells of human A549 lung cancer cell line; the tumor cells were injected in the afternoon of the same day when the last dose of treatment was administered in the morning. Starting from day 7 after tumor injection, mice were monitored for tumor formation twice a week, with 3-4 day intervals, until day 24 after tumor injection; tumor volumes were calculated via caliper measurements. By the end of the study, all the mice in both groups developed measurable tumors. […] Each point represents mean and standard deviation of tumor volume within a group of 10 mice.

[6] = Solubility in 20% propylene glycol; type: physicochemical
Protocol: as §2

CDK8 = CDK8 (Homo sapiens, UniProt P49336); assay: KinomeScan ATP pocket binding inhibition, CDK8; conditions: 2,000 nM
From the text: as §1

[7] = test system: MDA-MB-468 TNBC tumor invasion; assay: Histological analysis of MDA-MB-468 tumor invasion (H&E); type: in vivo, female nude mice; conditions: tumors from FIG. 15B experiment
From the text: At the end of the experiment shown in FIG. 15B, mice were sacrificed, tumors were removed, formalin fixed, sectioned and processed for histological analysis after H&E staining.

CDK19, sequence (Q9BWU1 whole entry): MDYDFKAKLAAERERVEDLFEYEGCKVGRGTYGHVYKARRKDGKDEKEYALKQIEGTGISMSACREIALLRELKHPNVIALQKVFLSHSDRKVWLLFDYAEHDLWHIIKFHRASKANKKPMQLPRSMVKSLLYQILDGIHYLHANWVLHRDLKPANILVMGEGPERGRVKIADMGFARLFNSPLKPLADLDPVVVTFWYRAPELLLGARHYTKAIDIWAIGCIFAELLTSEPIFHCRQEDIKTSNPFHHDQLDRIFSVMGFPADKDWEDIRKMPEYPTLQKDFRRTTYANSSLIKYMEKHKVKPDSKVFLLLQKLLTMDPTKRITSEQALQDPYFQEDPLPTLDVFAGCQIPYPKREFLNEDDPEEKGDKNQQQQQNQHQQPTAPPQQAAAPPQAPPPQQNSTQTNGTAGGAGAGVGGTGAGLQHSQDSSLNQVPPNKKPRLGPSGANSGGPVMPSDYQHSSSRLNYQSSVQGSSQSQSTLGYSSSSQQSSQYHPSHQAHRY
CDK8, sequence (P49336 whole entry): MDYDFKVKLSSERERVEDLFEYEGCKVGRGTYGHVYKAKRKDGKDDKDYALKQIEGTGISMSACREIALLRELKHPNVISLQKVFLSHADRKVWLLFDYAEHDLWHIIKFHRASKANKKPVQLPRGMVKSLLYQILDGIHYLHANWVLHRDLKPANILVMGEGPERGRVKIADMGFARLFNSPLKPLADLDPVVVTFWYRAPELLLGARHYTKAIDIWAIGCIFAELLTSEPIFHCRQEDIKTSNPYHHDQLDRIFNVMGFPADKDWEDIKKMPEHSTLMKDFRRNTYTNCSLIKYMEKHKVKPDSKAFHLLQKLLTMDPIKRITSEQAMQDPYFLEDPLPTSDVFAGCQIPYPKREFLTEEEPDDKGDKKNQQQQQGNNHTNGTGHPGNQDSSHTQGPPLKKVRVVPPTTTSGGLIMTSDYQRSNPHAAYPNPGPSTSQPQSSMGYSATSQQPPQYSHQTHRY

CN1CCN(C(=O)c2ccc3cc(CCNc4ncnc5ccc(C#N)cc45)ccc3c2)CC1 [SNX2-1-165]
oral availability [1]: orally available | peak plasma concentrations [1]: ~50 µM | area under the curve (AUC) [2]: 14100 ng·h/mL | % inhibition of MAP4K2 (MAP4K2): 69% | growth inhibition, MDA-MB-468 (MDA-MB-468 [3]): dose-dependent growth inhibition | Water Solubility (Water solubility): ≥ 50 mM | Water Solubility (Water solubility; listed as 165): Soluble at 50 mM | % inhibition of CDK19 (CDK19): 98.6% | growth inhibition, MDA-MB-157 (MDA-MB-157): dose-dependent growth inhibition | tumor growth (tumor volumes after 30 days of treatment) (MDA-MB-468 [4]): significantly slowed down the tumor growth | growth inhibition, 4T1 (4T1): not inhibited except for the highest concentrations | % inhibition of all other kinases in the panel (>450 kinases): ≤ 50% | tumor growth (tumor volume) after pretreatment [5]: significantly slower tumor growth | % solubility at 1 mM in 20% propylene glycol ([6]; 1 mM, 40° C., 30 min, centrifuged, OD reading): 100% | solubility in 20% propylene glycol ([6]; at 1 mM): fully soluble | % inhibition of CDK8 (CDK8): 97.8% | invasive or non-invasive tumor growth [7]: non-invasive
